From US8034329B2, “Repair and regeneration of renal tissue using human umbilical cord tissue-derived cells” (Advanced Technologies And Regenerative Medicine, LLC, priority 2007, dated 2011)

Test system: HLA-DR, DP, DQ expression of hUTC
Assay: Inhibition of IFN-gamma-induced expression of HLA-DR, DP, DQ on hUTC, flow cytometry
Type: cell-based, human
Method: Culture-expanded human umbilical cord tissue-derived cells (022803 P4) were seeded into 6-well tissue culture plates and cultured in Dulbecco's Modified Eagles Media (DMEM)-low glucose, 15% fetal bovine serum (FBS), penicillin/streptomycin (P/S), Betamercaptoethanol (BME) to approximately 70% confluence. The cells were then treated with media containing 10 μM of respective HMG-CoA reductase inhibitor (Simvastatic acid (Alexis Biochemicals, Lausen, Switzerland) formulated as 10 mM stock reagents in DMSO) or DMSO vehicle—0.1% (Sigma, St. Louis, Mo.) and incubated overnight. The media was removed by aspiration and replaced with media containing 500 U/ml rhIFN-gamma (BD Pharmingen, Franklin Lakes, N.J.) and […] of respective HMG-CoA reductase inhibitor and incubated for 3 days. On day three, cells were harvested with trypsin.
Harvested cells were washed once with PBS and re-suspended in 100 μl of 3% FBS in PBS with 20 μl FITC-labeled HLA-DR,DP,DQ (BD Biosciences, Franklin Lakes, N.J.) or FITC-labeled IgG antibody (BD Biosciences, Franklin Lakes, N.J.) and incubated for one hour. Cells were washed once in PBS and resuspended in 500 μl PBS and analyzed on a FACSCalibur flow cytometer (BS Biosciences, Franklin Lakes, N.J.).

## CCC(C)(C)C(=O)O[C@H]1C[C@@H](C)C=C2C=C[C@H](C)[C@H](CC[C@@H]3C[C@@H](O)CC(=O)O3)[C@H]21 [Simvastatin]
10 μM inhibitor overnight, then 500 U/ml rhIFN-gamma plus inhibitor 3 days
  HLA-DR, DP, DQ expression, FITC fluorescence intensity, IFN-gamma-treated, mean: 5.57
10 μM inhibitor, no IFN-gamma
  HLA-DR, DP, DQ expression, FITC fluorescence intensity, No cytokine treatment, Mean: 5.66
10 μM inhibitor, FITC-labeled IgG antibody
  FITC fluorescence intensity, IgG control, mean: 4.4
